In ChEMBL document CHEMBL1240322, “Small-molecule regulation of zebrafish gene expression” (Nat Chem Biol, 2007) one finds Activity and fold change (FC) data, which are given here for four compounds.

Residue numbers refer to the chain shown, from its start. Activity calls are given as the source filed them. No cut-off for these calls is given here.

Series [1] deals with Danio rerio. Briefly: Toxicity in zebrafish AB embryos assessed as induction of patterning deffects at 10 uM dosed every 24 hrs measured 72 hrs post fertilization. It counts as organism-based. The conditions noted are these: in vivo.
Series [2] concerns the target T1, Ecdysone receptor (Bombyx mori) (UniProt P49881).
T1 sequence (whole entry): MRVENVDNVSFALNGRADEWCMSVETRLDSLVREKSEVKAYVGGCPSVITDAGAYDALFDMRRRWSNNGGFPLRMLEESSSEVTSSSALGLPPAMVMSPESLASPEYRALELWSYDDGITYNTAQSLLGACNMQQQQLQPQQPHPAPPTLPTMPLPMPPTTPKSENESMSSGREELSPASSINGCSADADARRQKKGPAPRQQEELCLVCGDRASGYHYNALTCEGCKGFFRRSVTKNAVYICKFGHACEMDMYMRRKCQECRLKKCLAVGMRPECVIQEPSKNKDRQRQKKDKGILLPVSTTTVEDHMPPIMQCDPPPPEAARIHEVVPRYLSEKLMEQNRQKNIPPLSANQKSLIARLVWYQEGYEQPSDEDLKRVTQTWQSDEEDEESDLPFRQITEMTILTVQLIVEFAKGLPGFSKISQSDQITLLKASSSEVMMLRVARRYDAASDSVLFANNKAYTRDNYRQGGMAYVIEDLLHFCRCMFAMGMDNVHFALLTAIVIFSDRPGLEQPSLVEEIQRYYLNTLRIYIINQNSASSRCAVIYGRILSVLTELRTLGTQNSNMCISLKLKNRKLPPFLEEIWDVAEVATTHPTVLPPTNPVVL
As to the kind of experiment: Activation of Bombyx mori Ecdysone receptor (amino acids 272-606) expressed in HEK293 cells transfected with cytomegalovirus promoter-driven expression construct encoding chimeric transactivator composed of DBD and homodimerization domains of yeast Gal4 (amino acids 1-146) and VP16 activation domain (amino acids (413-456) at 10 uM exposed for 16 hrs by Gal4 dependent luciferase reportre gene assay relative to untreated control. It is filed as cell-based.

The target of series [3] is T1, Ecdysone receptor (Bombyx mori). As to the kind of experiment: Activation of Bombyx mori Ecdysone receptor (amino acids 272-606) expressed in HEK293 cells transfected with cytomegalovirus promoter-driven expression construct encoding chimeric transactivator composed of DBD and homodimerization domains of yeast Gal4 (amino acids 1-146) and VP16 activation domain (amino acids (456-490) at 10 uM exposed for 16 hrs by Gal4 dependent luciferase reportre gene assay relative to untreated control. It is filed as cell-based.

Series [4] has the same target. Briefly: Activation of Bombyx mori Ecdysone receptor (amino acids 272-606) expressed in HEK293 cells transfected with cytomegalovirus promoter-driven expression construct encoding chimeric transactivator composed of DBD and homodimerization domains of yeast Gal4 (amino acids 1-146) and VP16 activation domain (amino acids (413-476) at 10 uM exposed for 16 hrs by Gal4 dependent luciferase reportre gene assay relative to untreated control. It is filed as cell-based.

Series [5] has the same target. Briefly: Activation of Bombyx mori Ecdysone receptor (amino acids 272-606) expressed in HEK293 cells transfected with cytomegalovirus promoter-driven expression construct encoding chimeric transactivator composed of DBD and homodimerization domains of yeast Gal4 (amino acids 1-146) and VP16 activation domain (amino acids (413-490) at 10 uM exposed for 16 hrs by Gal4 dependent luciferase reportre gene assay relative to untreated control. It counts as cell-based.

Series [6] has the same target. Briefly: Activation of Bombyx mori Ecdysone receptor (amino acids 272-606) expressed in HEK293 cells transfected with cytomegalovirus promoter-driven expression construct encoding chimeric transactivator composed of DBD and homodimerization domains of yeast Gal4 (amino acids 1-146) and VP16 activation domain (amino acids (468-490) at 10 uM exposed for 16 hrs by Gal4 dependent luciferase reportre gene assay relative to untreated control. It counts as cell-based.

For series [7] the target is unchanged. Briefly: Activation of Bombyx mori Ecdysone receptor (amino acids 272-606) expressed in HEK293 cells transfected with cytomegalovirus promoter-driven expression construct encoding chimeric transactivator composed of DBD and homodimerization domains of yeast Gal4 (amino acids 1-146) and VP16 activation domain (amino acids (413-468) at 10 uM exposed for 16 hrs by Gal4 dependent luciferase reportre gene assay relative to untreated control. It counts as cell-based.

Series [8] has the same target. As to the kind of experiment: Activation of Bombyx mori Ecdysone receptor (amino acids 272-606) expressed in AB zebrafish embryos transfected with cytomegalovirus promoter-driven expression construct encoding chimeric transactivator composed of DBD and homodimerization domains of yeast Gal4 (amino acids 1-146) and VP16 activation domain (amino acids ([…]) at 10 uM exposed for 16 hrs by Gal4 dependent luciferase reportre gene assay relative to untreated control.

The subject of series [9] is T2, Ecdysone receptor (Bombyx mori), P49881 [V454I,Y474E].
T2 sequence (whole entry): T1 sequence (whole entry) with V454I, Y474E
Briefly: Activation of Bombyx mori Ecdysone receptor V454I and Y474E mutant (amino acids 272-606) expressed in AB zebrafish embryos transfected with cytomegalovirus promoter-driven expression construct encoding chimeric transactivator composed of DBD and homodimerization domains of yeast Gal4 (amino acids 1-146) and VP16 activation domain (amino acids (456-490) at 10 uM exposed for 16 hrs by Gal4 dependent luciferase reportre gene assay relative to untreated control.

Series [10] has the same test system. Briefly: Activation of Bombyx mori Ecdysone receptor V454I and Y474E mutant (amino acids 272-606)-mediated myl7 gene expression expressed in AB zebrafish embryos transfected with cytomegalovirus promoter-driven expression construct encoding chimeric transactivator composed of DBD and homodimerization domains of yeast Gal4 (amino acids 1-146) and VP16 activation domain (amino acids (468-490) assessed as myl7-promoter driven heart specific GFP expression at 10 uM exposed during 3 to 48 hrs post fertilization by Gal4 dependent luciferase reportre gene assay relative to untreated control.

Series [11] concerns the target T1, Ecdysone receptor (Bombyx mori). Briefly: Activation of Bombyx mori Ecdysone receptor (amino acids 272-606) expressed in AB zebrafish embryos transfected with cytomegalovirus promoter-driven expression construct encoding chimeric transactivator composed of DBD and homodimerization domains of yeast Gal4 (amino acids 1-146) and VP16 activation domain (amino acids (413-468) at 10 uM exposed for 16 hrs by Gal4 dependent luciferase reportre gene assay relative to untreated control.

Series [12] has as its system T2, Ecdysone receptor (Bombyx mori), P49881 [V454I,Y474E]. Briefly: Induction of nuclear translocation of Bombyx mori Ecdysone receptor V454I and Y474E mutant (amino acids 272-606) expressed in AB zebrafish embryos transfected with cytomegalovirus promoter-driven expression construct encoding chimeric transactivator composed of DBD and homodimerization domains of yeast Gal4 (amino acids 1-146) and VP16 activation domain (amino acids (468-490) at 1 uM exposed for 30 mins at 4 hrs post fertilization by Gal4 dependent luciferase reportre gene assay relative to untreated control.

Series [13] deals with T1, Ecdysone receptor (Bombyx mori). Briefly: Activation of Bombyx mori Ecdysone receptor (amino acids 272-606) expressed in AB zebrafish embryos transfected with cytomegalovirus promoter-driven expression construct encoding chimeric transactivator composed of DBD and homodimerization domains of yeast Gal4 (amino acids 1-146) and VP16 activation domain (amino acids (468-490) at 10 uM exposed for 16 hrs by Gal4 dependent luciferase reportre gene assay relative to untreated control.

The target is the same in series [14]. Briefly: Activation of Bombyx mori Ecdysone receptor (amino acids 272-606) expressed in AB zebrafish embryos transfected with cytomegalovirus promoter-driven expression construct encoding chimeric transactivator composed of DBD and homodimerization domains of yeast Gal4 (amino acids 1-146) and VP16 activation domain (amino acids (413-456) at 10 uM exposed for 16 hrs by Gal4 dependent luciferase reportre gene assay relative to untreated control.

The test system of series [15] is T2, Ecdysone receptor (Bombyx mori), P49881 [V454I,Y474E]. As to the kind of experiment: Activation of Bombyx mori Ecdysone receptor V454I and Y474E mutant (amino acids 272-606) expressed in AB zebrafish embryos transfected with cytomegalovirus promoter-driven expression construct encoding chimeric transactivator composed of DBD and homodimerization domains of yeast Gal4 (amino acids 1-146) and VP16 activation domain (amino acids (468-490) at 10 uM exposed for 16 hrs by Gal4 dependent luciferase reportre gene assay relative to untreated control.

Series [16] shares this test system. Briefly: Activation of Bombyx mori Ecdysone receptor V454I and Y474E mutant (amino acids 272-606)-mediated mylz2 gene expression expressed in AB zebrafish embryos transfected with cytomegalovirus promoter-driven expression construct encoding chimeric transactivator composed of DBD and homodimerization domains of yeast Gal4 (amino acids 1-146) and VP16 activation domain (amino acids (468-490) assessed as mylz2-promoter driven fats skeletal muscle specific GFP expression at 10 uM exposed during 3 to 48 hrs post fertilization by Gal4 dependent luciferase reportre gene assay relative to untreated control.

The test system is the same in series [17]. As to the kind of experiment: Activation of Bombyx mori Ecdysone receptor V454I and Y474E mutant (amino acids 272-606) expressed in AB zebrafish embryos transfected with cytomegalovirus promoter-driven expression construct encoding chimeric transactivator composed of DBD and homodimerization domains of yeast Gal4 (amino acids 1-146) and VP16 activation domain (amino acids (468-490) at 50 uM exposed for 2 to 6 hrs at 4 hrs post fertilization by Gal4 dependent luciferase reportre gene assay relative to untreated control.

The species entered for series [18] is Danio rerio. As to the kind of experiment: Toxicity in zebrafish AB embryos assessed as induction of patterning deffects at 10 uM single dose measured 72 hrs post fertilization. It is filed as organism-based. To be noted: in vivo.
In series [19] the target is T1, Ecdysone receptor (Bombyx mori). As to the kind of experiment: Activation of Bombyx mori Ecdysone receptor (amino acids 272-606) expressed in AB zebrafish embryos transfected with cytomegalovirus promoter-driven expression construct encoding chimeric transactivator composed of DBD and homodimerization domains of yeast Gal4 (amino acids 1-146) and VP16 activation domain (amino acids (413-490) at 10 uM exposed for 16 hrs by Gal4 dependent luciferase reportre gene assay relative to untreated control.

For series [20] the target is unchanged. Briefly: Activation of Bombyx mori Ecdysone receptor (amino acids 272-606) expressed in AB zebrafish embryos transfected with cytomegalovirus promoter-driven expression construct encoding chimeric transactivator composed of DBD and homodimerization domains of yeast Gal4 (amino acids 1-146) and VP16 activation domain (amino acids (413-476) at 10 uM exposed for 16 hrs by Gal4 dependent luciferase reportre gene assay relative to untreated control.

As to `Cc1cc(C)cc(C(=O)N(NC(=O)c2ccc3c(c2C)OCCO3)C(C)(C)C)c1`, the Activity result in the series with Danio rerio [1] is reported as “Non-toxic”.
Same read-out and setting: for `COc1cccc(C(=O)NN(C(=O)c2cc(C)cc(C)c2)C(C)(C)C)c1C` [METHOXYFENOZIDE] the value was “Non-toxic”.
Turning to `CC(C)CC[C@@H](O)[C@](C)(O)[C@H]1CC[C@@]2(O)C3=CC(=O)[C@@H]4C[C@@H](O)[C@@H](O)C[C@]4(C)[C@H]3CC[C@]12C` [PONASTERONE A], the fold change (FC) amounted to 26.1 in series [2]; 55.5 in [3]; 18.7 in series [4]; 6.05 in series [5]; 19.5 in series [6]; 44 in series [7]. In the series with Danio rerio [1], the Activity result is on record as “Non-toxic”.
As for `CCc1ccc(C(=O)NN(C(=O)c2cc(C)cc(C)c2)C(C)(C)C)cc1` [TEBUFENOZIDE], the fold change (FC) in series [2] was determined as 139; in series [8] it was 42.2; in series [9] it was 212; in series [3], 1420; in series [11] it was 5.05; in series [4], 57. The fold change (FC) stood at 113 in series [13]; 1.13 in series [14]; 1070 in series [15]; 0.8 in series [19]; 14.5 in series [5]; 880 in series [6]. Further, the fold change (FC) in series [7] was 114; in series [20], 1.73. For the same compound, the Activity was 44% in series [10], “Non-toxic” in the series on Danio rerio [1], 69% in series [16] and “Non-toxic” in the series listed under Danio rerio [18]. For the same compound, the result in series [12] and in series [17] was Active.
